Measurements from patent US6638921B1, “Pyridoxal-5-phosphate derivatives as HIV integrase inhibitors” (Pharmacor Inc., priority 2002, dated 2003).
Where a name gives a salt, the structure may show the parent alone. Read-outs that look alike come from different tables or passages of the source.

What was measured:
HIV-1 integrase = HIV-1 integrase (Human immunodeficiency virus type 1 group M subtype B, UniProt P12497); assay: HIV-1 integrase inhibition assay in vitro (radiolabeled duplex substrate, U5 end of HIV LTR); type: biochemical
Experimental: For the purpose of Table 1, the HIV-1 integrase inhibition assay was carried out following a known procedure (Burke, Jr. T. R. et al., J. Med. Chem. 38, 4171-4178 (1995)). A suitable radiolabeled duplex substrate corresponding to the U5 end of the HIV LTR was used.

[1] = test system: HIV-1 laboratory viral strain NL4.3; assay: Anti-viral assay in vitro (MTT, infected MT-4 cells); type: cell-based; conditions: reduce virus replication in cell culture by 50%, six days
Experimental: (§1) To evaluate the EC50 of our compounds, various drug concentrations are incubated with the infected cell for six days and then the metabolic activity of the cells is monitored by the MTT assay. (See A. J. Japour et al, Antimicrobial Agents and Chemotherapy, 37, 1095-1101, 1993 and R. Pauwels et al. Journal of Virological Methods, 20, 309-321, 1988).
(§2) We use the laboratory viral strain NL4.3 as wild type virus and the cell line used is MT-4 which is a T-cell line highly sensitive to HIV-1. We also use some WT clinical strains. To address the resistance issue we assay the inhibitors with NL4.3 mutants which are designed to be resistant to specific commercially available inhibitors. The following reagents were obtained through the AIDS Research and Reference Reagent Program, division of AIDS, NIAID, NIH: pNL4.3 from Dr. Malcolm Martin; MT-4 cell line from Dr. Douglas Richman. Wild type (WT) clinical strains were obtained from “Laboratoire de santé publique du Québec”.

MT-4 cell line = assay: Cytotoxicity assay in vitro (MTT, virus omitted); type: cell-based
Experimental: as §1, §2
The same MTT assay is used to evaluate the CCIC50 of our compounds except that the virus is omitted.

[2] = IC50, concentration of drug required to reduce the enzyme activity by 50%
[3] = Human immunodeficiency virus 1, MT4, 144 h

| Structure (SMILES) | IC50 (HIV-1 integrase; [2]) [µM] | EC50 [1, 3] [µM] | CCIC50 (MT-4 cell line; human, 6 days) [µM] | IC50 (HIV-1 integrase; concentration of drug required to reduce the enzyme activity by 50%, read-out: IC50) [µM] | EC50 ([1]; read-out: EC50) [µM] | CCIC50 (MT-4 cell line; reduce cell survival by 50%, MTT assay, virus omitted) [µM] | EC50 [1] [µM] |
| --- | --- | --- | --- | --- | --- | --- | --- |
| Cc1nc(N=Nc2cccc(S(=O)(=O)N3CCOCC3)c2)c(COP(=O)(O)O)c(C=O)c1O [Example 27, 6-[3-(Morpholinesulfamoyl)phenylazo]-pyridoxal-5-phosphate] | 1.1 | 27.5 | >100 | – | – | – | – |
| Cc1nc(N=Nc2cccc(C(=O)Nc3cccnc3)c2)c(COP(=O)(O)O)c(C=O)c1O [Example 28, 6-[3-(3-Pyridylcarbamoyl)phenylazo]-pyridoxal-5-phosphate] | 3.25 | 6.25 | 50 | – | – | – | – |
| Cc1nc(N=Nc2cccc(C(=O)Nc3ccccn3)c2)c(COP(=O)(O)O)c(C=O)c1O [Example 29, 6-[3-(2-Pyridylcarbamoyl)phenylazo]-pyridoxal-5-phosphate] | 3.85 | 24 | >100 | – | – | – | – |
| Cc1nc(N=Nc2cccc(C(=O)Nc3ccncc3)c2)c(COP(=O)(O)O)c(C=O)c1O [Example 30, 6-[3-(4-Pyridylcarbamoyl)phenylazo]-pyridoxal-5-phosphate] | 3.15 | 20 | 87 | – | – | – | – |
| Cc1nc(N=Nc2cccc(C(=O)Nc3cccc4cnccc34)c2)c(COP(=O)(O)O)c(C=O)c1O [Example 31, 6-[3-(5-Isoquinolylcarbamoyl)phenylazo]-pyridoxal-5-phosphate] | 3.25 | 15 | >100 | – | – | – | – |
| Cc1nc(N=Nc2cccc(C(=O)Nc3cccc4c3CCCN4)c2)c(COP(=O)(O)O)c(C=O)c1O [Example 37, 6-[3-(5-(1,2,3,4-Tetrahydroquinolyl)carbamoyl)phenylazo]-pyridoxal-5-phosphate] | 3.3 | 26 | 84 | – | – | – | – |
| Cc1ccc(C(=O)O)cc1N=Nc1nc(C)c(O)c(C=O)c1COP(=O)(O)O [Example 38, 6-(5-Carboxy-2-methylphenylazo)-pyridoxal-5-phosphate] | 2.3 | 50 | >100 | – | – | – | – |
| Cc1nc(N=Nc2cccc(C(=O)O)c2Cl)c(COP(=O)(O)O)c(C=O)c1O [Example 39, 6-(3-Carboxy-2-chlorophenylazo)-pyridoxal-5-phosphate] | 2.6 | 1.8 | >100 | – | – | – | – |
| Cc1nc(N=Nc2cc(C(=O)O)ccc2Cl)c(COP(=O)(O)O)c(C=O)c1O [Example 40, 6-(5-Carboxy-2-chlorophenylazo)-pyridoxal-5-phosphate] | – | – | – | 3.35 | 17 | >100 | – |
| Cc1nc(N=Nc2cc(F)c(F)c(C(=O)O)c2F)c(COP(=O)(O)O)c(C=O)c1O [Example 41, 6-(3-Carboxy-2,4,5-trifluorophenylazo)-pyridoxal-5-phosphate] | 2 | 14 | >100 | – | – | – | – |
| Cc1nc(N=Nc2cccc(C(=O)O)c2C(=O)O)c(COP(=O)(O)O)c(C=O)c1O [Example 47, 6-(2,3-Dicarboxyphenylazo)-pyridoxal-5-phosphate] | 0.165 | 10 | 17 | – | – | – | – |
| Cc1nc(N=Nc2ccccc2C(=O)O)c(COP(=O)(O)O)c(C=O)c1O [Example 48, 6-(2-Carboxyphenylazo)-pyridoxal-5-phosphate] | 0.345 | > 20 | >100 | – | – | – | – |
| Cc1nc(N=Nc2cc(C(=O)O)cc(C(=O)O)c2)c(COP(=O)(O)O)c(C=O)c1O [Example 49, 6-(3,5-Dicarboxyphenylazo)-pyridoxal-5-phosphate Methanesulfonic Acid Salt] | 0.5 | – | 12 | – | – | – | 0.275 |
| Cc1nc(N=Nc2cc(C(=O)O)cc(C(=O)O)c2)c(COP(=O)(O)O)c(C=O)c1O [Example 50, 6-(3,5-Dicarboxyphenylazo)-pyridoxal-5-phosphate Penta-potassium Salt] | 0.47 | – | >100 | – | – | – | 5 |
| CCOC(OCC)c1c(O)c(C)nc(N=Nc2cc(C(=O)O)cc(C(=O)O)c2)c1COP(=O)(O)O [Example 51, 6-(3,5-Dicarboxyphenylazo)-pyridoxal-5-phosphate Diethylacetal] | 0.125 | 0.35 | >100 | – | – | – | – |
| Cc1nc(N=Nc2cc(C(=O)O)cc(C(=O)O)c2)c(COP(=O)(O)O)c(C=NO)c1O [Example 52, 6-(3,5-Dicarboxyphenylazo)-pyridoxal-5-phosphate Oxime] | 8.75 | 15 | 60 | – | – | – | – |
